What follows are compounds tested against neutrophil elastase (Homo sapiens (Human), UniProt P08246) (assay: Human Neutrophil Elastase Assay). Settings: substrate MeOSuc-Ala-Ala-Pro-Val-AMC.
Type: biochemical
Experimental: Human Neutrophil Elastase Assay
All other materials were of the highest grade commercially available.
The following buffers were used: Compound buffer: 100 mM Tris, 500 mM NaCl, adjusted to pH 7.5; Assay buffer: 100 mM Tris, 500 mM NaCl, adjusted to pH 7.5, containing 0.01% BSA.
Assay conditions: Test compounds were prediluted in DMSO and subsequently in compound buffer (5% DMSO final). […] After inactivation of the enzyme, fluorescence intensities were measured at 380 nm excitation and 460 nm emission wavelengths.
Each plate contains wells with a high value control (DMSO+enzyme+substrate) and wells with a low value control (DMSO+inactivated enzyme+substrate). IC50 values were estimated using a sigmoidal concentration response curve with variable slope. Means of low values were taken as 0%, means of high values as 100%.

Chain of neutrophil elastase (P08246 30-247): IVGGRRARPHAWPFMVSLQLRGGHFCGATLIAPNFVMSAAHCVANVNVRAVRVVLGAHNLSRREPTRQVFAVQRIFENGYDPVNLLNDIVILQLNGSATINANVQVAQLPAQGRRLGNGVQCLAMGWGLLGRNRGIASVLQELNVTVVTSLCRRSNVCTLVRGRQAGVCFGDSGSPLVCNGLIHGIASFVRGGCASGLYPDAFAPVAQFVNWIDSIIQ

| SMILES | IC50 [nM] |
| --- | --- |
| CCOC(=O)C1=C(C)N(c2cccc(C(F)(F)F)c2)C(=O)N(C)C1c1ccc(C#N)cc1C(=O)N(C)CCOC (stereo not shown) [Example 3.24] | 1 |
| CC(=O)C1=C(C)N(c2cccc(C(F)(F)F)c2)C(=O)N(C)C1c1ccc(C#N)cc1C(=O)NCc1ccn(C)n1 (stereo not shown) [Example 1.55] | < 1 |
| CC(=O)C1=C(C)N(c2cccc(C(F)(F)F)c2)C(=O)N(C)C1c1ccc(C#N)cc1C(=O)N1CCC1 (stereo not shown) [Example 1.7] | < 1 |
| CCOC(=O)C1=C(C)N(c2cccc(C(F)(F)F)c2)C(=O)N(C)C1c1ccc(C#N)cc1C(=O)N1CC(O)C1 (stereo not shown) [Example 3.13] | < 1 |
| CC(=O)C1=C(C)N(c2cccc(C(F)(F)F)c2)C(=O)N(C)C1c1ccc(C#N)cc1C(=O)N(C)C (stereo not shown) [Example 1.2] | < 1 |
| CCOC(=O)C1=C(C)N(c2cccc(C(F)(F)F)c2)C(=O)N(C)C1c1ccc(C#N)cc1C(=O)N1CCN(C(C)C)CC1 (stereo not shown) [Example 3.45] | 1.8 |
| CC(=O)C1=C(C)N(c2cccc(C(F)(F)F)c2)C(=O)N(C)C1c1ccc(C#N)cc1C(=O)N1CC(O)C1 (stereo not shown) [Example 1.12] | < 1 |
| CC(=O)C1=C(C)N(c2cccc(C(F)(F)F)c2)C(=O)N(C)C1c1ccc(C#N)cc1-c1ccncc1 (stereo not shown) [Example 5.10] | 1.3 |
| CC(=O)C1=C(C)N(c2cccc(C(F)(F)F)c2)C(=O)N(C)C1c1ccc(C#N)cc1C(=O)NCCS(C)(=O)=O (stereo not shown) [Example 1.29] | < 1 |
| C#CCNC(=O)c1cc(C#N)ccc1C1C(C(C)=O)=C(C)N(c2cccc(C(F)(F)F)c2)C(=O)N1C (stereo not shown) [Example 1.5] | < 1 |
| CC(=O)C1=C(C)N(c2cccc(C(F)(F)F)c2)C(=O)N(C)C1c1ccc(C#N)cc1C(=O)NCc1ccc(C#N)o1 (stereo not shown) [Example 1.67] | 1.3 |
| CCOC(=O)C1=C(C)N(c2cccc(C(F)(F)F)c2)C(=O)N(C)C1c1ccc(C#N)cc1C(=O)N1CCOCC1 (stereo not shown) [Example 3.22] | 2 |
| CC(=O)C1=C(C)N(c2cccc(C(F)(F)F)c2)C(=O)N(C)[C@@H]1c1ccc(C#N)cc1C(=O)NCC#N [Example 13.3] | < 1 |
| CNC(=O)c1cc(C#N)ccc1C1C(C(C)=O)=C(C)N(c2cccc(C(F)(F)F)c2)C(=O)N1C (stereo not shown) [Example 1.1] | < 1 |
| CCOC(=O)C1=C(C)N(c2cccc(C(F)(F)F)c2)C(=O)N(C)C1c1ccc(C#N)cc1-c1cn[nH]c1 (stereo not shown) [Example 14.2] | 1.9 |
| CC(=O)C1=C(C)N(c2cccc(C(F)(F)F)c2)C(=O)N(C)C1c1ccc(C#N)cc1-c1nnco1 (stereo not shown) [Example 6, 4-[5-Acetyl-3,6-dimethyl-2-oxo-1-(3-trifluoromethyl-phenyl)-1,2,3,4-tetrahydro-pyrimidin-4-yl]-3-[1,3,4]oxadiazol-2-yl-benzonitrile] | < 1 |
| CCOC(=O)C1=C(C)N(c2cccc(C(F)(F)F)c2)C(=O)N(C)C1c1ccc(C#N)cc1C(=O)N1C[C@H]2C[C@@H]1CN2 (stereo partly shown) [Example 4.1] | 2.4 |
| CCOC(=O)C1=C(C)N(c2cccc(C(F)(F)F)c2)C(=O)N(C)C1c1ccc(C#N)cc1C(=O)NCC(F)F (stereo not shown) [Example 3.18] | < 1 |
| CN[C@H]1CCN(C(=O)c2cc(C#N)ccc2C2C(C(C)=O)=C(C)N(c3cccc(C(F)(F)F)c3)C(=O)N2C)C1 (stereo partly shown) [Example 2.16] | 1.2 |
| CC(=O)C1=C(C)N(c2cccc(C(F)(F)F)c2)C(=O)N(C)C1c1ccc(C#N)cc1C(=O)NCc1ccccc1 (stereo not shown) [Example 1.45] | 1 |

| SMILES | IC50 [nM] |
| --- | --- |
| CCOC(=O)C1=C(C)N(c2cccc(C(F)(F)F)c2)C(=O)N(C)C1c1ccc(C#N)cc1C(=O)N[C@@H]1CCNC1 (stereo partly shown) [Example 4.11] | 1.1 |
| CC(=O)C1=C(C)N(c2cccc(C(F)(F)F)c2)C(=O)N(C)C1c1ccc(C#N)cc1C(=O)N(C)Cc1ccncc1 (stereo not shown) [Example 1.68] | < 1 |
| CCOC(=O)C1=C(C)N(c2cccc(C(F)(F)F)c2)C(=O)N(C)C1c1ccc(C#N)cc1C(=O)NC1COC1 (stereo not shown) [Example 3.14] | < 1 |
| CCOC(=O)C1=C(C)N(c2cccc(C(F)(F)F)c2)C(=O)N(C)C1c1ccc(C#N)cc1C(=O)N1CC[C@@H](N(C)C)C1 (stereo partly shown) [Example 3.37] | 2.8 |
| CCOC(=O)C1=C(C)N(c2cccc(C(F)(F)F)c2)C(=O)N(C)C1c1ccc(C#N)cc1C(=O)NC1CCOC1 (stereo not shown) [Example 3.21] | 1.4 |
| CCOC(=O)C1=C(C)N(c2cccc(C(F)(F)F)c2)C(=O)N(C)C1c1ccc(C#N)cc1C(=O)N(C)CCN (stereo not shown) [Example 4.8] | < 1 |
| CCOC(=O)C1=C(C)N(c2cccc(C(F)(F)F)c2)C(=O)N(C)C1c1ccc(C#N)cc1C(N)=O (stereo not shown) [Example 3.3] | 3 |
| CC(=O)C1=C(C)N(c2cccc(C(F)(F)F)c2)C(=O)N(C)C1c1ccc(C#N)cc1C(=O)NCc1cn[nH]c1 (stereo not shown) [Example 1.36] | < 1 |
| CCOC(=O)C1=C(C)N(c2cccc(C(F)(F)F)c2)C(=O)N(C)C1c1ccc(C#N)cc1C(=O)NC1CCC(O)C1 (stereo not shown) [Example 3.28] | 1.3 |
| CC(=O)C1=C(C)N(c2cccc(C(F)(F)F)c2)C(=O)N(C)C1c1ccc(C#N)cc1C(=O)NCc1nccn1C (stereo not shown) [Example 1.57] | < 1 |
| CC(=O)C1=C(C)N(c2cccc(C(F)(F)F)c2)C(=O)N(C)C1c1ccc(C#N)cc1C(=O)NCC(F)(F)F (stereo not shown) [Example 1.23] | < 1 |
| CCOC(=O)C1=C(C)N(c2cccc(C(F)(F)F)c2)C(=O)N(C)C1c1ccc(C#N)cc1C(=O)NC1CC1 (stereo not shown) [Example 3.8] | 3 |
| CC(=O)C1=C(C)N(c2cccc(C(F)(F)F)c2)C(=O)N(C)C1c1ccc(C#N)cc1C(=O)NCC(F)F (stereo not shown) [Example 1.17] | < 1 |
| CCOC(=O)C1=C(C)N(c2cccc(C(F)(F)F)c2)C(=O)N(C)C1c1ccc(C#N)cc1C(=O)N(C)C (stereo not shown) [Example 3, 4-(4-Cyano-2-dimethylcarbamoyl-phenyl)-3,6-dimethyl-2-oxo-1-(3-trifluoromethyl-phenyl)-1,2,3,4-tetrahydro-pyrimidine-5-carboxylic acid ethyl ester] | < 1 |
| CCOC(=O)C1=C(C)N(c2cccc(C(F)(F)F)c2)C(=O)N(C)C1c1ccc(C#N)cc1C(=O)NCCCOC (stereo not shown) [Example 3.25] | 1.2 |
| CCOC(=O)C1=C(C)N(c2cccc(C(F)(F)F)c2)C(=O)N(C)C1c1ccc(C#N)cc1-c1ccn(C)n1 (stereo not shown) [Example 14.7] | 2.4 |
| CCNC(=O)c1cc(C#N)ccc1C1C(C(C)=O)=C(C)N(c2cccc(C(F)(F)F)c2)C(=O)N1C (stereo not shown) [Example 1.4] | < 1 |
| CC(=O)C1=C(C)N(c2cccc(C(F)(F)F)c2)C(=O)N(C)C1c1ccc(C#N)cc1C(=O)NCCO (stereo not shown) [Example 1.9] | < 1 |
| CC(=O)C1=C(C)N(c2cccc(C(F)(F)F)c2)C(=O)N(C)C1c1ccc(C#N)cc1C(=O)N1CC2CC1CN2 (stereo not shown) [Example 2.14] | 5.4 |
| CCOC(=O)C1=C(C)N(c2cccc(C(F)(F)F)c2)C(=O)N(C)C1c1ccc(C#N)cc1C(=O)NCCNC (stereo not shown) [Example 4.9] | < 1 |

| SMILES | IC50 [nM] |
| --- | --- |
| CCOC(=O)C1=C(C)N(c2cccc(C(F)(F)F)c2)C(=O)N(C)C1c1ccc(C#N)cc1-c1cnoc1 (stereo not shown) [Example 14.3] | < 1 |
| CCNC(=O)c1cc(C#N)ccc1C1C(C(=O)OCC)=C(C)N(c2cccc(C(F)(F)F)c2)C(=O)N1C (stereo not shown) [Example 3.5] | 3 |
| CC(=O)C1=C(C)N(c2cccc(C(F)(F)F)c2)C(=O)N(C)C1c1ccc(C#N)cc1C(=O)N(C)Cc1cn[nH]c1 (stereo not shown) [Example 1.56] | 0.3 |
| CCOC(=O)C1=C(C)N(c2cccc(C(F)(F)F)c2)C(=O)N(C)C1c1ccc(C#N)cc1C(=O)N1CCCC1 (stereo not shown) [Example 3.12] | < 1 |
| CC(=O)C1=C(C)N(c2cccc(C(F)(F)F)c2)C(=O)N(C)C1c1ccc(C#N)cc1C(=O)O (stereo not shown) [Intermediate 6, 2-[5-Acetyl-3,6-dimethyl-2-oxo-1-(3-trifluoromethyl-phenyl)-1,2,3,4-tetrahydro-pyrimidin-4-yl]-5-cyano-benzoic acid] | 3.93 |
| CC(=O)C1=C(C)N(c2cccc(C(F)(F)F)c2)C(=O)N(C)C1c1ccc(C#N)cc1C(=O)N1CCN2CCCC2C1 (stereo not shown) [Example 1.80] | 6.3 |
| CCOC(=O)C1=C(C)N(c2cccc(C(F)(F)F)c2)C(=O)N(C)C1c1ccc(C#N)cc1C(=O)N1CCC(N)CC1 (stereo not shown) [Example 4.3] | 4.8 |
| CCOC(=O)C1=C(C)N(c2cccc(C(F)(F)F)c2)C(=O)N(C)C1c1ccc(C#N)cc1C1=COCC1 (stereo not shown) [Example 14.4] | 1.9 |
| CC(=O)C1=C(C)N(c2cccc(C(F)(F)F)c2)C(=O)N(C)C1c1ccc(C#N)cc1C1=CN(C(=O)OC(C)(C)C)CC1 (stereo not shown) [Example 5.5] | 5.3 |
| CCOC(=O)C1=C(C)N(c2cccc(C(F)(F)F)c2)C(=O)N(C)C1c1ccc(C#N)cc1C(=O)NC1CCN(C(C)C)C1 (stereo not shown) [Example 3.44] | 1.1 |
| CCOC(=O)C1=C(C)N(c2cccc(C(F)(F)F)c2)C(=O)N(C)C1c1ccc(C#N)cc1C(=O)NCCO (stereo not shown) [Example 3.10] | 3 |
| CC(=O)C1=C(C)N(c2cccc(C(F)(F)F)c2)C(=O)N(C)C1c1ccc(C#N)cc1C1=CCOCC1 (stereo not shown) [Example 5.7] | < 1 |
| CC(=O)C1=C(C)N(c2cccc(C(F)(F)F)c2)C(=O)N(C)C1c1ccc(C#N)cc1C(=O)N(C)CCO (stereo not shown) [Example 1.14] | < 1 |
| CCOC(=O)C1=C(C)N(c2cccc(C(F)(F)F)c2)C(=O)N(C)C1c1ccc(C#N)cc1C(=O)NC1CCN(C)C1 (stereo not shown) [Example 4.18] | 1.3 |
| CCOC(=O)C1=C(C)N(c2cccc(C(F)(F)F)c2)C(=O)N(C)C1c1ccc(C#N)cc1C(=O)N1CC[C@H](NC)C1 (stereo partly shown) [Example 4.16] | < 1 |
| CC(=O)C1=C(C)N(c2cccc(C(F)(F)F)c2)C(=O)N(C)C1c1ccc(C#N)cc1C(=O)NCc1ccccn1 (stereo not shown) [Example 1.46] | < 1 |
| CC(=O)C1=C(C)N(c2cccc(C(F)(F)F)c2)C(=O)N(C)[C@@H]1c1ccc(C#N)cc1C(=O)NC1CC1 [Example 13.2] | < 1 |
| CCOC(=O)C1=C(C)N(c2cccc(C(F)(F)F)c2)C(=O)N(C)C1c1ccc(C#N)cc1C(=O)N1CC[C@H](N)C1 (stereo partly shown) [Example 4.13] | < 1 |
